Experiment: xn = mol fraction of the nth substance listed
Settings: 100 kPa

CCCC[n+]1ccn(C)c1.F[B-](F)(F)F + CCOC(C)=O
speed of sound [m/s]
Settings | x1 = 0.1012 | x1 = 0.1992 | x1 = 0.312 | x1 = 0.3985 | x1 = 0.5056 | x1 = 0.5996 | x1 = 0.7054 | x1 = 0.7963 | x1 = 0.9185
298.15 K | 1186 | 1228.1 | – | 1307 | 1351.4 | – | 1437.5 | – | –
303.15 K | 1164.6 | 1207.8 | – | – | 1334.1 | – | 1422.3 | – | 1509.6
308.15 K | – | – | 1232 | 1270.6 | 1317.1 | 1360.3 | 1407.5 | – | 1496.9
313.15 K | – | 1167.6 | – | 1252.4 | – | – | 1392.6 | 1438.8 | 1484.1
318.15 K | – | 1147.5 | 1193.9 | 1234.4 | 1283.1 | 1328.3 | 1377.8 | 1425.1 | –
323.15 K | 1080.1 | 1127.5 | 1175 | 1216.4 | – | 1312.6 | 1363.2 | 1411.6 | 1459.1
